Earlier results, collected in patent US9102697B2, “Trioxacarcins and uses thereof” (President and Fellows of Harvard College, priority 2010, dated 2015).

Legend:
[1] = system: murine models; settings: cited from earlier work
[2] = system: gram-positive; settings: cited from earlier work
[3] = system: MCF-7; settings: mammary cancer cell line MCF-7; cited from earlier work
[4] = system: H-460; settings: lung cancer cell line H-460; cited from earlier work
[5] = system: self-complementary DNA 12-mer d(AATTACGTAATT) (SEQ ID NO: 1); settings: epoxide opening by N7 of the central guanine residue; cited from earlier work
[6] = system: SF-268; settings: CNS cancer cell line SF-268; cited from earlier work
[7] = system: LXFL 529L; settings: lung cancer cell line LXFL 529L; cited from earlier work

Molecule	anti-tumor activity [1]	antibiotic activity [2]	IC70 [3]	IC70 [4]	reaction with the oligonucleotide [5]	IC70 [6]	IC70 [7]
COc1c2c(c(O)c3c4c(c(C)cc13)C1OC3(C(OC)OC)OC1C(O[C@H]1C[C@@H](O)[C@@](O)(C(C)=O)[C@H](C)O1)(O4)C3(O)CO)C(=O)C(O)CC2O[C@H]1C[C@@](C)(O)[C@H](OC(C)=O)[C@H](C)O1 (some centres unmarked) [Trioxacarcin B]	anti-tumor activity	gram-positive antibiotic activity					
COc1c2c(c(O)c3c4c(c(C)cc13)C1OC3(C(OC)OC)OC1C(OC1CC(O)C(O)(C(C)O)C(C)O1)(O4)C31CO1)C(=O)C(O)CC2OC1COC(C)(OC(C)=O)C(C)(O)C1 (centres unmarked) [Trioxacarcin C]	anti-tumor activity	gram-positive antibiotic activity					
Trioxacarcin A	anti-tumor activity	gram-positive antibiotic activity	subnanmolar	subnanmolar	form a covalent complex	subnanmolar	subnanmolar
